Source: paper PMC5989697 (ACS Catalysis, 2018)

Biological target: T1, eugenol oxidase (EUGO) (Rhodococcus jostii, UniProt Q0SBK1)
T1 sequence (Q0SBK1 1-526): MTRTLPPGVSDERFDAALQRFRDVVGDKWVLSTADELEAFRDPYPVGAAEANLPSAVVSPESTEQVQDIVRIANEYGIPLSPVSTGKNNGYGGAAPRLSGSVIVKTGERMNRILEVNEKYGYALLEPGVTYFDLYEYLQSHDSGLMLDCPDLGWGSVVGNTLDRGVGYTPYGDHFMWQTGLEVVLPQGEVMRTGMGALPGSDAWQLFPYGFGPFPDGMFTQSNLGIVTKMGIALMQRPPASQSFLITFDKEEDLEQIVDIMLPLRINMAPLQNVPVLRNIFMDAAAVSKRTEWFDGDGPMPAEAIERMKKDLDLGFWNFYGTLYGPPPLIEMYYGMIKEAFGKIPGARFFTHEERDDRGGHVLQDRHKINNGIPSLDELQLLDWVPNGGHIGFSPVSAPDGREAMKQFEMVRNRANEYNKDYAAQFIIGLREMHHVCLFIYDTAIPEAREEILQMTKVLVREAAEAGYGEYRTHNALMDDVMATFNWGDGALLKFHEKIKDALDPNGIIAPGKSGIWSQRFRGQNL
Assay: steady-state kinetics
Type: biochemical

C=CCc1cc(OC)c(O)c(OC)c1 [compound 1, 2,6-dimethoxy-4-allylphenol]
Km: 0.77 µM
